Experimental data published in publication PMC8658889, “Seriniquinones as Therapeutic Leads for Treatment of BRAF and NRAS Mutant Melanomas” (Molecules, 2021).

Columns and labels:
MRC-5 = assay: MTT cytotoxicity assay; conditions: Homo sapiens, MRC5, 72 h, MRC-5 non-tumor fibroblasts, 72 h treatment, MTT
SK-MEL-147 = assay: MTT cytotoxicity assay; format: cell-based, Human
Excerpt: (§1) Human cell lines were used throughout this program. SK-MEL-19 (melanoma BRAF^V600E, NRAS^WT), SK-MEL-28 (melanoma BRAF^V600E, NRAS^WT), SK-MEL-147 (melanoma BRAF^WT, NRAS^Q61R), MRC-5 (fibroblasts), and primary fibroblast (FDH) were kindly provided by Professor Glaucia Santelli (University of São Paulo, Brazil). MCF7 (breast adenocarcinoma, ATCC HTB-22), and HCT-116 (colorectal carcinoma, ATCC 247) cells were obtained from American Type Culture Collection (ATCC) and deposited in the Cell Bank of Rio de Janeiro, Brazil. WM293A (metastatic melanoma BRAF^V600D, NRAS^WT), 501mel (metastatic melanoma BRAF^V600E; NRAS^G12D), and MM200 (melanoma BRAF^V600E, NRAS^WT) were kindly provided by Professor Sharon Prince, University of Cape Town, South Africa. All human melanoma and breast cell lines were cultivated with Dulbecco’s Modified Eagle Medium: Nutrient Mixture F-12 (Thermo Fisher Scientific, San Jose, CA, USA). MM200 and HCT-116 were maintained with Roswell Park Memorial Institute (RPMI) medium (Thermo Fisher Scientific, San Jose, CA, USA). Unless stated otherwise, media was supplemented with 10% fetal bovine serum (FBS) and 1% penicillin-streptomycin (Thermo Fisher Scientific, San Jose, CA, USA). Cells were incubated with 5% CO2 at 37 °C. When required, cells were detached from flask using trypsin-EDTA 0.05% (Thermo Fisher Scientific, San Jose, CA, USA).
(§2) Cytotoxic activity was evaluated by the transformation of 3-(4,5-dimethylthiazol-2-yl)-2,5-diphenyltetrazolium bromide (MTT; Thermo Fisher Scientific, San Jose, CA, USA) into formazan by viable cells. Cells were plated in a 96-well plate (1 × 10^4 cells/well) and, 24 h later, exposed to serial dilutions of the test compounds (from 0.00032 to 5.0 µM) for 24, 48, and 72 h. For each analysis, negative controls received 0.5% DMSO and positive control was delivered by doxorubicin (DOX; 0.05 to 10.0 µM). At the end of the incubation periods, the medium was replaced with fresh medium containing 0.5 mg/mL of MTT and supernatant was removed 3 h later. The plates were dried at 50 °C for 30 min and formazan was solubilized in DMSO (150 µL/well) for the absorbance measure at 570 nm on a plate reader (Thermo Fisher Scientific, San Jose, CA, USA). IC50 values (half-maximal inhibitory concentration) along with 95% CI (confidence intervals) were calculated by non-linear regression using GraphPad Prism 8.0 software (GraphPad Software, Inc., San Diego, CA, USA).

WM293A = assay: MTT cytotoxicity assay; format: cell-based, Human
Excerpt: as §1, §2

SK-MEL-28 = assay: MTT cytotoxicity assay; format: cell-based, Human
Excerpt: as §1, §2

SK-MEL-19 = assay: MTT cytotoxicity assay; format: cell-based, Human
Excerpt: as §1, §2

MM200 = assay: MTT cytotoxicity assay; format: cell-based, Human
Excerpt: as §1, §2

FDH = assay: MTT cytotoxicity assay; format: cell-based, Human; conditions: Homo sapiens, Fibroblast, 72 h, FDH primary fibroblasts, 72 h treatment
Excerpt: as §1, §2

HCT-116 = assay: MTT cytotoxicity assay; format: cell-based, Human
Excerpt: as §1, §2

MCF7 = assay: MTT cytotoxicity assay; format: cell-based, Human
Excerpt: as §1, §2

501mel = assay: MTT cytotoxicity assay; format: cell-based, Human
Excerpt: as §1, §2

melanoma cells = assay: MTT cytotoxicity assay, melanoma panel; format: cell-based, Human; conditions: SK-Mel cells versus non-tumor cell lines
Excerpt: as §1, §2

With `O=C(O)CCc1ccc2c(=O)c3sc4c(=O)c5ccccc5c(=O)c4c3c(=O)c2c1` [SQ3] the IC50 (MRC-5) was 1.43 µM, the IC50 (SK-MEL-147; Homo sapiens, SK-MEL-147, 72 h, SK-MEL-147, 72 h treatment, MTT) was 0.26 µM and the “Selectivity Index (SI)” value (SK-MEL-147; SK-MEL-147 versus FDH, 72-h IC50 ratio) was 13.5. The “Selectivity Index (SI)” value (SK-MEL-147; SK-MEL-147 versus MRC-5, 72-h IC50 ratio) was 5.5, the IC50 (WM293A; Homo sapiens, WM293A, 72 h treatment, MTT) was 1.5 µM and the “Selectivity Index (SI)” value (WM293A; WM293A versus FDH, 72-h IC50 ratio) was 2.3. The “Selectivity Index (SI)” value (WM293A; WM293A versus MRC-5, 72-h IC50 ratio) was 1.0, the IC50 (SK-MEL-28; Homo sapiens, SK-MEL-28, 72 h, SK-MEL-28, 72 h treatment, MTT) was 0.24 µM and the “Selectivity Index (SI)” value (SK-MEL-28; SK-MEL-28 versus FDH, 72-h IC50 ratio) was 14.6. For the same molecule, the “Selectivity Index (SI)” value (SK-MEL-28; SK-MEL-28 versus MRC-5, 72-h IC50 ratio) was 6.0, the IC50 (SK-MEL-19; Homo sapiens, SK-MEL19, SK-MEL-19, 72 h treatment, MTT) was 0.11 µM and the “Selectivity Index (SI)” value (SK-MEL-19; SK-MEL-19 versus FDH, 72-h IC50 ratio) was 31.8. For the same molecule, the “Selectivity Index (SI)” value (SK-MEL-19; SK-MEL-19 versus MRC-5, 72-h IC50 ratio) was 13.0, the IC50 (MM200; Homo sapiens, 72 h, MM200, 72 h treatment, MTT) was 1.43 µM and the “Selectivity Index (SI)” value (MM200; MM200 versus FDH, 72-h IC50 ratio) was 2.4. For the same molecule, the “Selectivity Index (SI)” value (MM200; MM200 versus MRC-5, 72-h IC50 ratio) was 1.0, the IC50 (FDH) was 3.5 µM and the “Selectivity Index (SI)” value (HCT-116; HCT-116 versus FDH, 72-h IC50 ratio) was 3.4. The “Selectivity Index (SI)” value (HCT-116; HCT-116 versus MRC-5, 72-h IC50 ratio) was 1.4, the IC50 (HCT-116; Homo sapiens, HCT-116, 72 h treatment, MTT) was 1.02 µM and the IC50 (MCF7; Homo sapiens, MCF7, 72 h treatment, MTT) was 1.9 µM. The “Selectivity Index (SI)” value (MCF7; MCF7 versus FDH, 72-h IC50 ratio) was 1.8, the “Selectivity Index (SI)” value (MCF7; MCF7 versus MRC-5, 72-h IC50 ratio) was 0.8 and the “Selectivity Index (SI)” value (501mel; 501mel versus FDH, 72-h IC50 ratio) was 17.5. The “Selectivity Index (SI)” value (501mel; 501mel versus MRC-5, 72-h IC50 ratio) was 7.2, the IC50 (501mel; Homo sapiens, 501mel, 72 h treatment, MTT) was 0.2 µM and the “selectivity indices to SK-Mel cells in relation to non-tumor cell lines” value (melanoma cells) was “≥ twofold”.
